Measurements published in patent US11229628B2, “TRPA1 and TRPV4 inhibitors and methods of using the same for organ-specific inflammation and itch” (Duke University, priority 2015, dated 2022).
“Also recorded” adds a separate entry of the source.

Experiments:
ET1 expression in 1° MK = test: ET1 expression by UVB-exposed 1° MK (immunocytochemistry); format: cell-based, mouse; settings: 295 nm UVB-LED, 24 hours
Experimental: 1° MK were exposed to UVB using the UV optical system (295 nm LED). 24 hours later the cells were fixed and fluorescently immunolabeled for ET1. Digital images were captured and subjected to morphometry.
Mouse keratinocytes were cultured on collagen coated quartz coverslips and then stimulated from the bottom using the previously mentioned UV optical system using the 295 nm LED. 24 hours later the cells were fixed in 4% formaldehyde in PBS for 20 minutes, permeabilized with 0.1% Triton X-100 in PBS for 10 minutes, washed, then blocked in 10% normal goat serum in PBS for 45 minutes. Coverslips were incubated overnight with primary antibody mouse anti-ET1 (1:200; Abcam), washed three times in PBS and incubated with secondary antibody for 2 hours at 25° C. Coverslips were washed three times in PBS, once with double-distilled H2O. Digital images were captured using a 40× immersion lens on the BX61 Olympus upright microscope. Morphometric analysis was conducted using ImageJ freeware with tailored regions-of-interest.
We tested whether UVB causes ET1 upregulation in a TRPV4-dependent manner. Given the exquisite wave-length dependence of ET1 expression in 1° MKs, we resorted to the UVB-LED device as for Ca++ imaging (FIG. 6A and FIG. 2A-D). […] Consistent with its effects on UVB-evoked Ca++ transients, PLC-inhibitor U73122 also dampened ET1 expression. […] This leads to TRPV4-dependent Ca++ signaling, which in turn amplifies ET1 signaling in a paracrine/autocrine fashion.

mouse paw-pad skin = test: UVB-photodermatitis of mouse paw-pad skin after topical treatment (immunolabeling, histopathology, Edn1 qPCR); format: in vivo
Experimental: A viscous solution of 68% EtOH/5% glycerol plus 1 mM or 5 mM GSK205 (none for control) was applied to hindpaws by rubbing in 20 μL, applied at time-points 1 hour and again 10 min before UV exposure.
Routine procedures were followed as described previously (Chen et al., 2009). Mice were perfused transcardially with 30 mL PBS, followed by 30 mL 4% paraformaldehyde. Tissues, including the L5 DRGs (bilateral), and footpad preparations, were dissected and post-fixed in 4% paraformaldehyde. Tissue blocks were further cryoprotected in 30% sucrose in PBS for 24-48 hours. For mouse TRPV4, keratin-specific antibodies, phospho-ERK, IL-6, IL-1β, CXCL5 and caspase-1, tissue was prepared as frozen blocks and subsequently sectioned on a cryostat. For CD68, CD15 (neutrophil elastase) and CD3, mouse skin was prepared by 2% PFA perfusion. Footpad and DRG sections (both at 6-10 μm) were thaw-mounted, blocked with 5% normal goat serum (NGS; Jackson), then incubated overnight at 4° C. with the following primary antibodies: rabbit anti-TRPV4 (1:300; Abcam), mouse anti-keratin 14 (1:300; Abcam against C-terminal peptide beyond residue 850); rabbit anti-keratin 14 (1:1000; Fuchs-Lab), rabbit anti-phosph-ERK1/2 (1:500; Cell signaling technologies), goat anti-IL-1β (1:800; Abcam), goat anti-IL-6 (1:200; Santa Cruz Biotechnology Inc); rabbit anti-caspase-1 (1:200; Biovision Research Products, CA); goat anti-mouse LIX/CXCL5 (1:200; R&D Systems Inc), anti-CD68, anti-[…], and anti-CD3 (AbDSerotec). Immunodetection was accomplished with appropriate fluorescently-labeled secondary antibodies (AlexaFluor595, AlexaFluor488-conjugated antibodies at 1:600; Invitrogen; for CD15 biotinylated secondary antibody from donkey, 1:400 followed by rhodamine-streptavidine 1:250), or with peroxidase-linked detection reagents (for CD68) for 2 hours at room-temperature. Sections were rinsed, mounted, and cover-slipped with fluoromount (Sigma). Digital micrographs were obtained using a BX61 Olympus upright microscope, also with a Zeiss LSM510 confocal, both equipped with high-res CCD camera, and acquired with constant exposure settings, using ISEE or Zeiss Zen software. Morphometric analysis was conducted using ImageJ freeware (v1.45) with tailored regions-of-interest that spared the nuclear compartment. ImageJ was also used for determination of DRG surface area.
In view of TRPV4-dependence of ET/Edn1 expression in skin, we measured Edn1 mRNA abundance in GSK205 vs. vehicle treated paw-pad skin. […] In striking contrast, and in keeping with histopathology, Edn1 mRNA-expression in GSK205 topically-treated skin was found unchanged.
(§1) We also tested the response of down-stream UVB effector mechanisms to GSK205 treatment in vivo.

IL-1β secretion by 1° MK = test: IL-1β secreted by cultured keratinocytes after UVB exposure (ELISA); format: cell-based, mouse; settings: 5 μM GSK205
Experimental: Before UV irradiation, culture media was replaced with PBS. The cells were then irradiated at a dose of 50 mJ/cm^2 with UVB. 24 hours later, supernatants were assayed using IL-1β ELISA (R&D Systems, Minneapolis, Minn.).
as §1

`CN(CCc1ccc(Nc2nc(-c3cccnc3)cs2)cc1)Cc1ccccc1` [GSK205] was tested, and the “ET1 immunoreactivity in UVB-exposed 1° MK” value (ET1 expression in 1° MK) was “diminished; also recorded: significant down-regulation”, the “histopathology of UVB-photodermatitis” value (mouse paw-pad skin; topical 5 mM GSK205) was “virtual elimination of inflammation; also recorded: markedly reduced inflammatory infiltrate” and the “keratinocyte expression of CXCL5 in UVB-exposed footpad” value (mouse paw-pad skin; topical 5 mM GSK205) was “significant blocks; also recorded: attenuates”. For the same compound, the “keratinocyte expression of IL-1β in UVB-exposed footpad” value (mouse paw-pad skin; topical 5 mM GSK205) was “failed to upregulate; also recorded: attenuates”, the “keratinocyte expression of IL-6 in UVB-exposed footpad” value (mouse paw-pad skin; topical 5 mM GSK205) was “significant blocks; also recorded: attenuates” and the “Edn1 mRNA expression in paw-pad skin after UVB” value (mouse paw-pad skin; topical 5 mM GSK205, 2 hour and 24 hour time-points) was “unchanged; also recorded: complete lack of this regulation”. For the same compound, the “UVB-induced increase in IL-1β secretion by 1° MK” value (IL-1β secretion by 1° MK) was “completely eliminated; also recorded: prevention of increase in IL-1β secretion”.
